22 compounds from patent publication US9682995B2, “Amino-substituted isothiazoles” (BAYER PHARMA AKTIENGESELLSCHAFT, priority 2013, dated 2017) can be followed below.

One assay concerns the target CDK2/CycE (Homo sapiens (Human), UniProt P24941). The experiment in a line: CDK2/CycE kinase assay (TR-FRET). Conditions: 10 μM ATP; read-out: CDK2 avg (IC50 [mol/l]). It counts as biochemical. The source says:
CDK2/CycE-inhibitory activity of compounds of the present invention was quantified employing the CDK2/CycE TR-FRET assay as described in the following paragraphs.
Recombinant fusion proteins of GST and human CDK2 and of GST and human CycE, expressed in insect cells (Sf9) and purified by Glutathion-Sepharose affinity chromatography, were purchased from ProQinase GmbH (Freiburg, Germany). As substrate for the kinase reaction biotinylated peptide biotin-Ttds-YISPLKSPYKISEG (C-terminus in amid form) was used which can be purchased e.g. form the company JERINI peptide technologies (Berlin, Germany).
For the assay 50 nl of a 100 fold concentrated solution of the test compound in DMSO was pipetted into a black low volume 384 well microtiter plate (Greiner Bio-One, Frickenhausen, Germany), 2 μl of a solution of CDK2/CycE in aqueous assay buffer [50 mM Tris/HCl pH 8.0, 10 mM MgCl2, 1.0 mM dithiothreitol, 0.1 mM sodium ortho-vanadate, 0.01% (v/v) Nonidet-P40 (Sigma)] were added and the mixture was incubated for 15 min at 22° C. to allow pre-binding of the test compounds to the enzyme before the start of the kinase reaction. Then the kinase reaction was started by the addition of 3 μl of a solution of adenosine-tri-phosphate (ATP, 16.7 μM=>final conc. in the 5 μl assay volume is 10 μM) and substrate (1.25 μM=>final conc. in the 5 μl assay volume is 0.75 μM) in assay buffer and the resulting mixture was incubated for a reaction time of 25 min at 22° C. The concentration of CDK2/CycE was adjusted depending of the activity of the enzyme lot and was chosen appropriate to have the assay in the linear range, typical concentrations were in the range of 130 ng/ml. The reaction was stopped by the addition of 5 μl of a solution of TR-FRET detection reagents (0.2 μM streptavidine-XL665 [Cisbio Bioassays, Codolet, France] and 1 nM anti-RB(pSer807/pSer811)-antibody from BD Pharmingen [#558389] and 1.2 nM LANCE EU-W1024 labeled anti-mouse IgG antibody [Perkin-Elmer, product no. AD0077, as an alternative a Terbium-cryptate-labeled anti-mouse IgG antibody from Cisbio Bioassays can be used]) in an aqueous EDTA-solution (100 mM EDTA, 0.2% (w/v) bovine serum albumin in 100 mM HEPES/NaOH pH 7.0).
The resulting mixture was incubated 1 h at 22° C. to allow the formation of complex between the phosphorylated biotinylated peptide and the detection reagents. Subsequently the amount of phosphorylated substrate was evaluated by measurement of the resonance energy transfer from the Eu-chelate to the streptavidine-XL. Therefore, the fluorescence emissions at 620 nm and 665 nm after excitation at 350 nm was measured in a TR-FRET reader, e.g. a Rubystar (BMG Labtechnologies, Offenburg, Germany) or a Viewlux (Perkin-Elmer). The ratio of the emissions at 665 nm and at […] was taken as the measure for the amount of phosphorylated substrate. The data were normalised (enzyme reaction without inhibitor=0% inhibition, all other assay components but no enzyme=100% inhibition).

Another assay concerns HeLa. The experiment in a line: Proliferation assay (crystal violet), HeLa. It counts as cell-based. Conditions: Homo sapiens, 96 h, 4 days, read-out: Inhibition of proliferation IC50 HeLa. On the procedure: Cultivated tumor cells (cells were ordered from ATCC, except HeLa-MaTu and HeLa-MaTu-ADR, which were ordered from EPO-GmbH, Berlin) were plated at a density of 1000 to 5000 cells/well, depending on the growth rate of the respective cell line, in a 96-well multititer plate in 200 μL of their respective growth medium supplemented 10% fetal calf serum. After 24 hours, the cells of one plate (zero-point plate) were stained with crystal violet (see below), while the medium of the other plates was replaced by fresh culture medium (200 μl), to which the test substances were added in various concentrations (0 μM, as well as in the range of 0.001-10 μM; the final concentration of the solvent dimethyl sulfoxide was 0.5%). The cells were incubated for 4 days in the presence of test substances. Cell proliferation was determined by staining the cells with crystal violet: the cells were fixed by adding 20 μl/measuring point of an 11% glutaric aldehyde solution for 15 minutes at room temperature. After three washing cycles of the fixed cells with water, the plates were dried at room temperature. The cells were stained by adding 100 μl/measuring point of a 0.1% crystal violet solution (pH 3.0). After three washing cycles of the stained cells with water, the plates were dried at room temperature. The dye was dissolved by adding 100 μl/measuring point of a 10% acetic acid solution. Absorption was determined by photometry at a wavelength of 595 nm. The change of cell number, in percent, was calculated by normalization of the measured values to the absorption values of the zero-point plate (=0%) and the absorption of the untreated (0 μm) cells (=100%). The IC50 values were determined by means of a 4 parameter fit.

Some results are limits rather than exact numbers.

Consider `Cc1nsc(Nc2cncc(C(=O)N3CCOCC3)n2)c1C(=O)Nc1ccc(F)c(F)c1` [Example 107, N-(3,4-Difluorophenyl)-3-methyl-5-{[6-(morpholin-4-ylcarbonyl)pyrazin-2-yl]amino}-1,2-thiazole-4-carboxamide], for which the results for the IC50 at CDK2/CycE and in the assay with HeLa were more than 20 µM and 4.9 µM, respectively.
Regarding `CCc1ccccc1NC(=O)c1c(C)nsc1Nc1ncnc2ccsc12` [Example 13, N-(2-Ethylphenyl)-3-methyl-5-(thieno[3,2-d]pyrimidin-4-ylamino)-1,2-thiazole-4-carboxamide], the IC50 at CDK2/CycE is more than 20 µM; with HeLa, more than 10 µM.
As for `Cc1nsc(Nc2cc(C#N)ccn2)c1C(=O)Nc1ccc(Oc2ccc(F)cc2F)nc1` [Example 114, 5-[(4-Cyanopyridin-2-yl)amino]-N-[6-(2,4-difluorophenoxy)pyridin-3-yl]-3-methyl-1,2-thiazole-4-carboxamide], the IC50 at CDK2/CycE was more than 20 µM; in the assay on HeLa, 1.1 µM.
The matching figures for `COc1ccc(NC(=O)c2c(C)nsc2Nc2ccc(C#N)cn2)cn1` [Example 39, 5-[(5-Cyanopyridin-2-yl)amino]-N-(6-methoxypyridin-3-yl)-3-methyl-1,2-thiazole-4-carboxamide]: more than 20 µM and 6.7 µM.
For `Cc1nsc(Nc2cncc(N(C)C)n2)c1C(=O)Nc1ccc(F)c(F)c1` [Example 105, N-(3,4-Difluorophenyl)-5-{[6-(dimethylamino)pyrazin-2-yl]amino}-3-methyl-1,2-thiazole-4-carboxamide], the IC50 on CDK2/CycE was more than 20 µM; in the assay on HeLa, 10 µM.
The matching figures for `COc1ccc(NC(=O)c2c(C)nsc2Nc2cc(C#N)ccn2)cn1` [Example 25, 5-[(4-Cyanopyridin-2-yl)amino]-N-(6-methoxypyridin-3-yl)-3-methyl-1,2-thiazole-4-carboxamide]: more than 20 µM and more than 10 µM.
As for `COc1ccc(NC(=O)c2c(C)nsc2Nc2ncccc2C#N)cn1` [Example 36, 5-[(3-Cyanopyridin-2-yl)amino]-N-(6-methoxypyridin-3-yl)-3-methyl-1,2-thiazole-4-carboxamide], the IC50 is more than 20 µM at CDK2/CycE and 9.9 µM with HeLa.
As for `CCOC(=O)c1cnc(Nc2snc(C)c2C(=O)Nc2ccc(F)c(F)c2)o1` [Example 96, Ethyl 2-({4-[(3,4-difluorophenyl)carbamoyl]-3-methyl-1,2-thiazol-5-yl}amino)-1,3-oxazole-5-carboxylate], the IC50 was more than 20 µM on CDK2/CycE and 10 µM in the assay with HeLa.
On the same counts, the results for `CCc1ccccc1NC(=O)c1c(C)nsc1Nc1cnc2cc(F)ccc2n1` [Example 20, N-(2-Ethylphenyl)-5-[(6-fluoroquinoxalin-2-yl)amino]-3-methyl-1,2-thiazole-4-carboxamide] are more than 20 µM and 1.1 µM.
On the same counts, the results for `CCc1ccccc1NC(=O)c1c(C)nsc1Nc1nc(C)nc2ccccc12` [Example 35, N-(2-Ethylphenyl)-3-methyl-5-[(2-methylquinazolin-4-yl)amino]-1,2-thiazole-4-carboxamide] are more than 20 µM and 1.2 µM.
On the same counts, the results for `Cc1nsc(Nc2cc(C#N)ccn2)c1C(=O)Nc1ccc(F)c(F)c1` [Example 27, 5-[(4-Cyanopyridin-2-yl)amino]-N-(3,4-difluorophenyl)-3-methyl-1,2-thiazole-4-carboxamide] are more than 20 µM and 2 µM.
For `CCc1ccccc1NC(=O)c1c(C)nsc1Nc1nc2ccccc2s1` [Example 14, 5-(1,3-Benzothiazol-2-ylamino)-N-(2-ethylphenyl)-3-methyl-1,2-thiazole-4-carboxamide], the IC50 at CDK2/CycE is more than 20 µM; with HeLa it was 1 µM.
Turning to `Cc1nsc(Nc2cnc3ccccc3n2)c1C(=O)Nc1ccc(F)c(F)c1` [Example 50, N-(3,4-Difluorophenyl)-3-methyl-5-(quinoxalin-2-ylamino)-1,2-thiazole-4-carboxamide], the IC50 was more than 20 µM on CDK2/CycE and 0.45 µM with HeLa.
On the same counts, the results for `CCc1ccccc1NC(=O)c1c(C)nsc1Nc1cnc2ccccc2n1` [Example 19, N-(2-Ethylphenyl)-3-methyl-5-(quinoxalin-2-ylamino)-1,2-thiazole-4-carboxamide] are more than 20 µM and 2.5 µM.
On to `CCc1ccccc1NC(=O)c1c(C)nsc1Nc1ncccc1C#N` [Example 8, 5-[(3-Cyanopyridin-2-yl)amino]-N-(2-ethylphenyl)-3-methyl-1,2-thiazole-4-carboxamide], for which the figures for the IC50 at CDK2/CycE and with HeLa were more than 20 µM and more than 10 µM, respectively.
The matching figures for `CCc1ccccc1NC(=O)c1c(C)nsc1Nc1cnc2ccc(Cl)cc2n1` [Example 41, 5-[(7-Chloroquinoxalin-2-yl)amino]-N-(2-ethylphenyl)-3-methyl-1,2-thiazole-4-carboxamide]: more than 20 µM and 1.3 µM.
For `CCOC(=O)c1sc(Nc2snc(C)c2C(=O)Nc2ccccc2CC)nc1C` [Example 26, Ethyl 2-({4-[(2-ethylphenyl)carbamoyl]-3-methyl-1,2-thiazol-5-yl}amino)-4-methyl-1,3-thiazole-5-carboxylate], the results for the IC50 on CDK2/CycE and in the assay on HeLa were more than 20 µM and 4.4 µM, respectively.
Turning to `CCc1ccccc1NC(=O)c1c(C)nsc1Nc1nc2ccccc2nc1C` [Example 21, N-(2-Ethylphenyl)-3-methyl-5-[(3-methylquinoxalin-2-yl)amino]-1,2-thiazole-4-carboxamide], the values for the IC50 on CDK2/CycE and with HeLa were more than 20 µM and more than 10 µM, respectively.
The matching figures for `CNC(=O)c1ccnc(Nc2snc(C)c2C(=O)Nc2ccc(F)c(F)c2)c1` [Example 108, 2-({4-[(3,4-Difluorophenyl)-carbamoyl]-3-methyl-1,2-thiazol-5-yl}amino)-N-methyliso-nicotinamide]: more than 20 µM and 10 µM.
On the same counts, the results for `Cc1nsc(Nc2cnc3ccccc3n2)c1C(=O)Nc1ccc(Oc2ccc(F)cc2F)nc1` [Example 113, N-[6-(2,4-Difluorophenoxy)pyridin-3-yl]-3-methyl-5-(quinoxalin-2-ylamino)-1,2-thiazole-4-carboxamide] are more than 20 µM and 0.88 µM.
The matching figures for `COC(=O)c1cncc(Nc2snc(C)c2C(=O)Nc2ccc(OC)nc2)n1` [Example 101, Methyl 6-({4-[(6-methoxypyridin-3-yl)carbamoyl]-3-methyl-1,2-thiazol-5-yl}amino)pyrazine-2-carboxylate]: more than 20 µM and 7.2 µM.
With `COc1ncc(NC(=O)c2c(C)nsc2Nc2cnc3ccccc3n2)cc1C` [Example 121, N-(6-Methoxy-5-methylpyridin-3-yl)-3-methyl-5-(quinoxalin-2-ylamino)-1,2-thiazole-4-carboxamide], the IC50 was more than 20 µM on CDK2/CycE and 3.3 µM in the assay with HeLa.
